What was measured:
[1] = test system: Seq 5 dsDNA (DNA, duplex) GCGCCCGC/GCGGGCGC; assay: thermal melting; details: 100 mM KCl; 10 mM HEPES, 0.4 mM EDTA; 5 μM duplex, ligand 1:10 per base pair; Tm without ligand 54±0.7
[2] = test system: Seq 6 dsDNA (DNA, duplex) CTTCGATAGTG/CACTATCGAAG; assay: thermal melting; details: 100 mM KCl; 10 mM HEPES, 0.4 mM EDTA; 5 μM duplex, ligand 1:10 per base pair; Tm without ligand 45±1.1
[3] = test system: Seq 6 dsDNA (5'-CTTCGATAGTG) (DNA, duplex) CTTCGATAGTG/CACTATCGAAG; assay: fluorescence quantum yield titration; details: 100 mM KCl; 10 mM HEPES pH 7, 0.4 mM EDTA, 25 °C
[4] = test system: Poly dA ⋅ Poly dT (DNA, polymer) A/T; assay: thermal melting; details: 100 mM KCl; 10 mM HEPES, 0.4 mM EDTA; 5 μM duplex, ligand 1:10 per base pair; Tm without ligand 72±1.0
[5] = test system: Poly rA ⋅ Poly rU (RNA, polymer) A/U; assay: thermal melting; details: 100 mM KCl; 10 mM HEPES, 0.4 mM EDTA; 5 μM duplex, ligand 1:10 per base pair; Tm without ligand 58±0.4
[6] = test system: HTG DNA (DNA, G4) AGGGTTAGGGTTAGGGTTAGGG; assay: thermal melting; details: 100 mM KCl; 10 mM HEPES, 0.4 mM EDTA; ligand to HTG 2.2:1; Tm without ligand 57±1.9
[7] = test system: Seq 6 dsDNA (5'-CTTCGATAGTG) (DNA, duplex) CTTCGATAGTG/CACTATCGAAG; assay: thermal melting; details: 100 mM KCl; derived from two Tm; 10 mM HEPES, 0.4 mM EDTA; ligand 1:10 per base pair
[8] = test system: Poly rA ⋅ Poly rU (RNA, polymer) A/U; assay: thermal melting; details: 100 mM KCl, derived from two Tm, 10 mM HEPES, 0.4 mM EDTA, ligand 1:10 per base pair
[9] = test system: Seq 4 (GCGGGGGC)2 (DNA, duplex) GCGGGGGC/GCCCCCGC; assay: fluorescence increase (ΔF), plate reader; details: 50 mM NaCl; 10 mM sodium cacodylate, 0.5 mM EDTA, pH 6.0; 1 µM duplex, 1:1 ligand
[10] = test system: Seq 3 (GGGGCGGG)2 (DNA, duplex) GGGGCGGG/CCCGCCCC; assay: fluorescence increase (ΔF), plate reader; details: 50 mM NaCl; 10 mM sodium cacodylate, 0.5 mM EDTA, pH 6.0; 1 µM duplex, 1:1 ligand
[11] = test system: Seq 1 (GGGGCCCC)2 (DNA, duplex) GGGGCCCC; assay: fluorescence increase (ΔF), plate reader; details: 50 mM NaCl; 10 mM sodium cacodylate, 0.5 mM EDTA, pH 6.0; 1 µM duplex, 1:1 ligand
[12] = test system: Seq 5 dsRNA (RNA, duplex) GCGCCCGC/GCGGGCGC; assay: thermal melting; details: 100 mM KCl; 10 mM HEPES pH not given, 0.4 mM EDTA; 5 µM duplex; ligand 1:10 per base pair
[13] = test system: Seq 2 (CCCCGGGG)2 (DNA, duplex) CCCCGGGG; assay: fluorescence increase (ΔF), plate reader; details: 50 mM NaCl; 10 mM sodium cacodylate, 0.5 mM EDTA, pH 6.0; 1 µM duplex, 1:1 ligand
[14] = test system: Seq 5 dsDNA (5'-GCGCCCGC) (DNA, duplex) GCGCCCGC/GCGGGCGC; assay: thermal melting; details: 100 mM KCl; 10 mM HEPES pH not given, 0.4 mM EDTA; 5 µM duplex; ligand 1:10 per base pair
[15] = test system: Poly dA ⋅ Poly dT (DNA, polymer) A/T; assay: thermal melting; details: 100 mM KCl, derived from two Tm, 10 mM HEPES, 0.4 mM EDTA, ligand 1:10 per base pair
[16] = test system: HTG DNA (human telomeric G-quadruplex), d[AG3(T2AG3)3] (DNA, G4) AGGGTTAGGGTTAGGGTTAGGG; assay: thermal melting; details: 100 mM KCl; derived from two Tm; 10 mM HEPES, 0.4 mM EDTA; 5 µM DNA; ligand to HTG 2.2:1

Tm [1]	Tm [2]	binding [3]	Tm [4]	Tm [5]	Tm [6]	ΔTm [7]	ΔTm [8]	binding [9]	binding [10]	binding [11]	Tm increase [12]	binding [13]	Tm increase [14]	ΔTm [15]	ΔTm [16]	SMILES
54±1.6 °C	52±1.0 °C	yes	73±0.3 °C	58±1.1 °C	61±1.2 °C											CN1C(=Cc2cc[n+](C)c3ccccc23)Sc2ccccc21
						13 °C	21 °C	yes	yes	yes	11 °C	yes	10.8 °C	1 °C	10 °C	CN1C(=Cc2cc[n+](CCCCC(=O)NCCSC[C@H]3O[C@@H](O[C@@H]4[C@@H](O)[C@H](N)C[C@H](N)[C@H]4O[C@H]4O[C@H](CN)[C@@H](O)[C@H](O)[C@H]4N)[C@H](O)[C@@H]3O[C@H]3O[C@@H](CN)[C@@H](O)[C@H](O)[C@H]3N)c3ccccc23)Sc2ccccc21
						9 °C	13 °C	yes	yes	yes	9.7 °C	yes	13.8 °C	0 °C	8 °C	CN1C(=Cc2cc[n+](CCCCC(=O)NC[C@H]3O[C@@H](O[C@@H]4[C@@H](O)[C@H](N)C[C@H](N)[C@H]4O[C@H]4O[C@H](CN)[C@@H](O)[C@H](O)[C@H]4N)[C@H](O)[C@@H]3O[C@H]3O[C@@H](CN)[C@@H](O)[C@H](O)[C@H]3N)c3ccccc23)Sc2ccccc21

Reference: publication PMC11973503 (2024)
